In PubChem BioAssay AID2060340 (Molecular Pharmacology Branch, DTP, NCI, 2025):

Tested on: 349418-098-R-PDC spheroids, viability, % test/control
Assay: Anticancer human tumor 349418-098-R-PDC patient-derived lung adenocarcinoma cell line growth inhibition [IpAb]
Conditions: spheroids with HUVEC and MSC; for IC50: curve of first compound; for viability, T/C: stronger effect = lower value
Method in brief: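 Combinations with ipatasertib or abemaciclib were tested on tumour spheroids holding HUVEC (25%) and MSC (15%) alongside 60% malignant cells. Top concentration was at or near clinical Cmax (10 microM if undefined), descending in half-log steps.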

[1] = second compound 0.1 µM, first compound 0.0316 µM
[2] = second compound 0.1 µM, first compound 0.1 µM
[3] = second compound 0.1 µM, first compound 0.316 µM
[4] = second compound 0.1 µM, first compound 1 µM
[5] = second compound 0.1 µM, first compound 3.16 µM
[6] = second compound 0.1 µM, first compound 10 µM
[7] = second compound 0.316 µM, first compound 0.0316 µM
[8] = second compound 0.316 µM, first compound 0.1 µM
[9] = second compound 0.316 µM, first compound 0.316 µM
[10] = second compound 0.316 µM, first compound 1 µM
[11] = second compound 0.316 µM, first compound 3.16 µM
[12] = second compound 0.316 µM, first compound 10 µM
[13] = second compound 1 µM, first compound 0.0316 µM
[14] = second compound 1 µM, first compound 0.1 µM
[15] = second compound 1 µM, first compound 0.316 µM
[16] = second compound 1 µM, first compound 1 µM
[17] = second compound 1 µM, first compound 3.16 µM
[18] = second compound 1 µM, first compound 10 µM
[19] = second compound 3.16 µM, first compound 0.0316 µM
[20] = second compound 3.16 µM, first compound 0.1 µM
[21] = second compound 3.16 µM, first compound 0.316 µM
[22] = second compound 3.16 µM, first compound 1 µM
[23] = second compound 3.16 µM, first compound 3.16 µM
[24] = second compound 3.16 µM, first compound 10 µM
[25] = second compound 10 µM, first compound 0.0316 µM
[26] = second compound 10 µM, first compound 0.1 µM
[27] = second compound 10 µM, first compound 0.316 µM
[28] = second compound 10 µM, first compound 1 µM
[29] = second compound 10 µM, first compound 3.16 µM
[30] = second compound 10 µM, first compound 10 µM
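Note: spheroids exposed to compounds for 7 days.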

With `CC(=O)c1c(C)c2cnc(Nc3ccc(N4CCNCC4)cn3)nc2n(C2CCCC2)c1=O` + CC(C)NCC(C(=O)N1CCN(c2ncnc3c2C(C)CC3O)CC1)c1ccc(Cl)cc1 the IC50 (second compound 0.1 µM) was 8.74 nM, the IC50 (second compound 0.316 µM) was < 0.949 nM and the IC50 (second compound 1 µM) was < 0.949 nM. The IC50 (second compound 3.16 µM) was < 0.949 nM, the IC50 (second compound 10 µM) was < 0.949 nM and the viability, T/C (second compound 0.1 µM, first compound 0.000949 µM) was 76.3%. It also gave a viability, T/C (second compound 0.1 µM, first compound 0.003 µM) of 74.8%, a viability, T/C (second compound 0.1 µM, first compound 0.00949 µM) of 44% and a viability, T/C (second compound 0.1 µM, first compound 0.03 µM) of 29.3%. The viability, T/C (second compound 0.1 µM, first compound 0.0949 µM) was 14.4%, the viability, T/C (second compound 0.1 µM, first compound 0.3 µM) was 12.1% and the viability, T/C (second compound 0.316 µM, first compound 0.000949 µM) was 40.5%. The viability, T/C (second compound 0.316 µM, first compound 0.003 µM) was 43.2%, the viability, T/C (second compound 0.316 µM, first compound 0.00949 µM) was 23.8% and the viability, T/C (second compound 0.316 µM, first compound 0.03 µM) was 15.5%. It also gave a viability, T/C (second compound 0.316 µM, first compound 0.0949 µM) of 8.84%, a viability, T/C (second compound 0.316 µM, first compound 0.3 µM) of 8.96% and a viability, T/C (second compound 1 µM, first compound 0.000949 µM) of 19.5%. It also gave a viability, T/C (second compound 1 µM, first compound 0.003 µM) of 13.5%, a viability, T/C (second compound 1 µM, first compound 0.00949 µM) of 9.63% and a viability, T/C (second compound 1 µM, first compound 0.03 µM) of 7.98%. For the same compound, the viability, T/C (second compound 1 µM, first compound 0.0949 µM) was 7.69%, the viability, T/C (second compound 1 µM, first compound 0.3 µM) was 7.53% and the viability, T/C (second compound 3.16 µM, first compound 0.000949 µM) was 11.4%. It also gave a viability, T/C (second compound 3.16 µM, first compound 0.003 µM) of 9.48%, a viability, T/C (second compound 3.16 µM, first compound 0.00949 µM) of 8.85% and a viability, T/C (second compound 3.16 µM, first compound 0.03 µM) of 6.09%. It also gave a viability, T/C (second compound 3.16 µM, first compound 0.0949 µM) of 6.21%, a viability, T/C (second compound 3.16 µM, first compound 0.3 µM) of 7.07% and a viability, T/C (second compound 10 µM, first compound 0.000949 µM) of 7.89%. For the same compound, the viability, T/C (second compound 10 µM, first compound 0.003 µM) was 6.96%, the viability, T/C (second compound 10 µM, first compound 0.00949 µM) was 5.33% and the viability, T/C (second compound 10 µM, first compound 0.03 µM) was 5.56%. For the same compound, the viability, T/C (second compound 10 µM, first compound 0.0949 µM) was 5.75% and the viability, T/C (second compound 10 µM, first compound 0.3 µM) was 5.61%.
`Cc1nc(NC(=O)N2CCCC2C(N)=O)sc1-c1ccnc(C(C)(C)C(F)(F)F)c1` (stereo not given) + CC(C)NCC(C(=O)N1CCN(c2ncnc3c2C(C)CC3O)CC1)c1ccc(Cl)cc1 was tested, and the IC50 (second compound 0.1 µM) was 117 nM, the IC50 (second compound 0.316 µM) was < 31.6 nM and the IC50 (second compound 1 µM) was < 31.6 nM. The IC50 (second compound 3.16 µM) was < 31.6 nM, the IC50 (second compound 10 µM) was < 31.6 nM and the viability, T/C [1] was 75.5%. For the same compound, the viability, T/C [2] was 52.5%, the viability, T/C [3] was 31.8% and the viability, T/C [4] was 16.8%. For the same compound, the viability, T/C [5] was 14.2%, the viability, T/C [6] was 12.7% and the viability, T/C [7] was 40.3%. For the same compound, the viability, T/C [8] was 33.8%, the viability, T/C [9] was 24.9% and the viability, T/C [10] was 12.6%. For the same compound, the viability, T/C [11] was 13.7%, the viability, T/C [12] was 9.57% and the viability, T/C [13] was 21.9%. It also gave a viability, T/C [14] of 16.2%, a viability, T/C [15] of 13.6% and a viability, T/C [16] of 11%. The viability, T/C [17] was 10.2%, the viability, T/C [18] was 8.68% and the viability, T/C [19] was 11.4%. For the same compound, the viability, T/C [20] was 9.53%, the viability, T/C [21] was 9.54% and the viability, T/C [22] was 7.39%. It also gave a viability, T/C [23] of 7.95%, a viability, T/C [24] of 7.62% and a viability, T/C [25] of 8.29%. For the same compound, the viability, T/C [26] was 7.93%, the viability, T/C [27] was 7.48% and the viability, T/C [28] was 6.51%. It also gave a viability, T/C [29] of 6.55% and a viability, T/C [30] of 5.85%.
In the case of `Cn1nccc1Nc1nccc(-c2ccn(C(CO)c3ccc(Cl)c(F)c3)c(=O)c2)n1` (stereo not given) + CC(C)NCC(C(=O)N1CCN(c2ncnc3c2C(C)CC3O)CC1)c1ccc(Cl)cc1, the IC50 (second compound 0.1 µM) is reported as < 31.6 nM, the IC50 (second compound 0.316 µM) is reported as < 31.6 nM and the IC50 (second compound 1 µM) is reported as < 31.6 nM. The IC50 (second compound 3.16 µM) was < 31.6 nM, the IC50 (second compound 10 µM) was < 31.6 nM and the viability, T/C [1] was 43.3%. The viability, T/C [2] was 35.9%, the viability, T/C [3] was 33% and the viability, T/C [4] was 29.7%. The viability, T/C [5] was 21.5%, the viability, T/C [6] was 17.9% and the viability, T/C [7] was 23.7%. It also gave a viability, T/C [8] of 20.2%, a viability, T/C [9] of 17.9% and a viability, T/C [10] of 16%. It also gave a viability, T/C [11] of 16%, a viability, T/C [12] of 14.6% and a viability, T/C [13] of 10.3%. It also gave a viability, T/C [14] of 10.8%, a viability, T/C [15] of 8.91% and a viability, T/C [16] of 10.4%. It also gave a viability, T/C [17] of 11.8%, a viability, T/C [18] of 11% and a viability, T/C [19] of 7.69%. It also gave a viability, T/C [20] of 7.5%, a viability, T/C [21] of 6.61% and a viability, T/C [22] of 7%. The viability, T/C [23] was 7.85%, the viability, T/C [24] was 8.65% and the viability, T/C [25] was 5.18%. For the same compound, the viability, T/C [26] was 5.1%, the viability, T/C [27] was 4.68% and the viability, T/C [28] was 4.43%. For the same compound, the viability, T/C [29] was 5.74% and the viability, T/C [30] was 7%.
